Results as given in article PMC7760777 (Microorganisms, 2020).
“Also recorded” adds a separate entry of the source. Read-outs that look alike come from different tables or passages of the source.

Columns and labels:
[1] = tested on: SARS-CoV-2; assay: microbe, parasite or virus in culture; type: cell-based; conditions: Severe acute respiratory syndrome coronavirus 2; Calu-3 cells, percentage of virus-infected cells, 2 h pretreatment, fixed 48 h post-infection
[2] = tested on: SARS-CoV-2; assay: Time-of-addition experiment in Vero E6 cells; type: cell-based; conditions: 10 μM
[3] = tested on: SARS-CoV-2; type: cell-based; conditions: Vero E6 supernatants, dose-dependent, TCID50
[4] = tested on: SARS-CoV-2; conditions: Vero E6 cells; for inhibition of SARS-CoV-2 in compound dilution series: 4 µM to 0.062 µM, 24 h post-infection
[5] = tested on: SARS-CoV-2; assay: in vitro
[6] = tested on: SARS-CoV-2; assay: microbe, parasite or virus in culture; conditions: Severe acute respiratory syndrome coronavirus 2, Vero C1008, 24 h
[7] = CellTox green cytotoxicity assay on Vero E6 cells; conditions: African green monkey, Vero E6 cells (uninfected)
[8] = CC50 determination on Calu-3 cells (cell viability); conditions: human
[9] = CellTiter-Glo 2.0 cell viability assay on Vero E6 cells; conditions: African green monkey, Vero E6 cells (uninfected)
[10] = in vitro; conditions: African green monkey
[11] = in vitro; conditions: African green monkey; remark: listed apart in the source
[12] = tested on: Vero E6 cells; assay: CellTox green cytotoxicity assay on Vero E6 cells; conditions: Vero E6 cells, uninfected plates, 48 h
[13] = tested on: Vero E6 cells; assay: CellTiter-Glo 2.0 cell viability assay on Vero E6 cells; conditions: Vero E6 cells, uninfected plates, 48 h
[14] = tested on: SARS-CoV-2; assay: Survival screen: SARS-CoV-2-induced CPE, crystal violet staining; type: cell-based; conditions: Vero E6 cells, 1 µM, 2 h pretreatment, MOI 0.01, 48 h
Experimental: Vero E6 cells were seeded in 96-well clear bottom, black wall plates (Costar, Tewksbury, MA, USA), at a density of 20,000 cells per well, one day prior to the experiment. Cells were pretreated for 2 h with 1 µM of each compound contained in the PRB. Remdesivir, K22 [17], and vehicle controls (DMSO) were included in each plate. Subsequently, cells were infected with SARS-CoV-2 at a multiplicity of infection (MOI) of 0.01 in compound-containing medium and incubated at 37 °C in a humidified incubator with 5% CO2. Uninfected (mock) controls were included in each plate. At 48 h post-infection (hpi), cells were fixed with 4% (v/v) neutral buffered formalin (Formafix AG, Hittnau, Switzerland) and stained with crystal violet. Cell viability and cytotoxicity were assessed in parallel, in identically treated, uninfected plates. […]
To identify potential antiviral compounds against SARS-CoV-2 replication, 201 antibacterial, 46 antifungal and 153 antiviral molecules included in the PRB were screened using a conservative concentration of 1 µM. […] Cell survival was scored from 0 (virus-induced cytopathogenic effects; CPE) to 1 (no CPE), upon evaluation of SARS-CoV-2-induced CPE using crystal violet staining (Figure 1A). The cytotoxicity and cell viability were assessed on uninfected plates processed in parallel, to exclude detrimental effects of the compounds on the cells. […]

[15] = Selective Index (SI), CC50 divided by EC50, Vero E6 cells

With Cc1nc(-c2ccc([C@@H]3N(C)c4ccc(F)cc4C(=O)N3c3ccccc3)s2)cs1 [Retro-2.1] the EC50 [1] was 0.08 µM, the “inhibitory effect on SARS-CoV-2-infected cells, treatment after infection (condition 3)” value ([2]; MOI 0.01, 24 h post-infection) was “most pronounced inhibitory effect” and the “inhibitory effect on SARS-CoV-2-infected cells, treatment during infection (condition 2)” value ([2]; MOI 0.01, 24 h post-infection) was “more pronounced inhibition”. The “inhibitory effect on SARS-CoV-2-infected cells, treatment prior to infection (condition 1)” value ([2]; MOI 0.01, 24 h post-infection) was “only a marginal reduction”, the “reduction in viral titer, treatment after infection (condition 3)” value ([2]; supernatant at 24 h post-infection) was over 1000 fold and the “reduction in viral titer” value [3] was “strongest reduction”. The “inhibition of SARS-CoV-2 in compound dilution series” value [4] was “inhibited SARS-CoV-2 in a dose-dependent manner”, the selectivity ratio [5] was over 239 and the EC90 [6] was 1.03 µM. The CC50 at 48 h [7] was over 100 µM, the CC50 at 48 h [8] was over 100 µM and the CC50 at 48 h [9] was over 100 µM.

For CCC(CC)COC(=O)[C@H](C)N[P@](=O)(OC[C@H]1O[C@@](C#N)(c2ccc3c(N)ncnn23)[C@H](O)[C@@H]1O)Oc1ccccc1 [Remdesivir], the EC50 [1] was 0.17 µM, the “Selective Index (SI), CC50 divided by EC50” value [4] was over 73.85 and the CC50 [10] was over 100 µM. It also gave a CC50 [11] of over 100 µM, a selectivity ratio [5, 15] of over 73.8 and an EC90 [6] of 3.39 µM. The “influence on cell cytotoxicity in the screen” value [12] was “did not influence cell cytotoxicity” and the “influence on cell viability in the screen” value [13] was “did not influence”.

For O=C(N/C(=C\c1ccccc1)C(=O)N1CCC(O)(c2ccc(Br)cc2)CC1)c1ccccc1 [K22], the “inhibition of SARS-CoV-2-induced CPE in the survival screen” value [14] was “did not show any inhibitory activity; also recorded: did not inhibit SARS-CoV-2 infection”.

In the case of Cc1ccc(C)c(OCCCCCCN2C[C@H](O)[C@@H](O)[C@H](O)[C@H]2CO)c1 [PBDNJ0803], the “inhibition of SARS-CoV-2 in compound dilution series” value [4] is reported as “inhibited SARS-CoV-2 in a dose-dependent manner”, the CC50 at 48 h [7] is reported as over 100 µM and the CC50 at 48 h [8] is reported as over 100 µM. It also gave a CC50 at 48 h [9] of over 100 µM.

With CCCCCCCCCN1C[C@H](O)[C@@H](O)[C@H](O)[C@H]1CO [NN-DNJ, N-Nonyl Deoxynojirimycin] the “inhibition of SARS-CoV-2 in compound dilution series” value [4] was “inhibited SARS-CoV-2 in a dose-dependent manner”, the CC50 at 48 h [7] was over 100 µM and the CC50 at 48 h [8] was over 100 µM. It also gave a CC50 at 48 h [9] of over 100 µM.

For CN1CCN(Cc2ccc(-c3cnc4[nH]cc(-c5ccc6[nH]ccc6c5)c4c3)cc2)CC1 [URMC-099-C], the “Selective Index (SI), CC50 divided by EC50” value [4] was 50.69, the “inhibition of SARS-CoV-2 in compound dilution series” value [4] was “inhibited SARS-CoV-2 in a dose-dependent manner” and the selectivity ratio [5, 15] was 50.7. For the same molecule, the EC90 [6] was 1.83 µM, the CC50 at 48 h [7] was 24.9 µM and the CC50 at 48 h [8] was 15.5 µM. For the same molecule, the CC50 at 48 h [9] was 14.7 µM.

With CCN(CC)CCCC(C)Nc1ccnc2cc(Cl)ccc12 (centres unmarked) [Chloroquine] the “inhibition of SARS-CoV-2 in compound dilution series” value [4] was “inhibited SARS-CoV-2 in a dose-dependent manner” and the EC90 [6] was 10.4 µM.
